Laboratory results as given in patent US20230026277A1, “COMPOSITION FOR PREVENTION, ALLEVIATION, OR TREATMENT OF RESPIRATORY DISEASE” (MICROX CO., LTD., priority 2019, published 2023).

Legend:
Type in all cases: in vivo
[1] = tested on: MKP-1 protein; test: Western blot of MKP-1 protein in lung tissue of asthma-induced mice
Protocol: (§1) Also, on days 21 and 28 from the experimental starting date, the mice were put into a plastic box (Plexiglas (Rohm & Haas, Philadelphia, Pa.) exposure chamber; 24.5 cm×40.5 cm×15.0 cm), and 1.5% ovalbumin was evaporated using an ultrasonic nebulizer (NE-U12; output 0.8 mL/min; Omron, Japan), and injected into the box for 30 minutes so that the mice inhaled the evaporated ovalbumin (secondary challenge).
(§2) A tissue was extracted from each of the mice manufactured in Experimental Method 1, and finely ground to a cell level. Thereafter, the cells were lysed in a cell lysis buffer containing a protease inhibitor to obtain a cell lysate. The cell lysate was centrifuged to obtain protein. Then, an equivalent amount of the proteins obtained from the cells were loaded on an SDS-PAGE gel and electrophoresed. The proteins present in the electrophoresed gel were transferred to a PVDF membrane. […] The PVDF membrane was washed three times with a TBS-T buffer, and visualized and quantified using an ECL Western blotting detection reagent. […]
Small interfering RNA (siRNA; hereinafter referred to as “MKP-1 siRNA”) against RNA encoding an MKP-1 protein, and control siRNA strands were purchased from SANTA CRUZ (USA). […] An effect of the MKP-1 siRNA interference was determined by measuring an expression level of the MKP-1 protein in the lung tissue through Western blot analysis. […]

[2] = tested on: IL-4, IL-5, and IL-13; test: Cytokines in bronchoalveolar lavage fluid by ELISA, asthma-induced mice
Protocol: Eight-week-old female […] mice (Orient Bio Korea Inc., Korea) having no certain pathogen were accommodated in an aseptic laminar-flow cabinet, and bred by supplying a standard solid feed ad libitum. When the following experiment was performed, the mice were made to correspond to 7- to 8-weeks old, and all laboratory animals were managed according to the protocol approved by the Institutional Animal Care and Use Committee of the Chonbuk National University Medical School.
as §1
After the mice were anesthetized, a thin tube was inserted into the airway, and a piston process was repeated using a syringe filled with 0.2 mL of physiological saline to obtain a bronchoalveolar lavage fluid. The bronchoalveolar lavage fluid obtained through this piston process was stored at −70° C. when it was not immediately used in the experiments.
A level of cytokines in the bronchoalveolar lavage fluid obtained in Experimental Method 2 was measured using an ELISA kit. Here, ELISA kits specifically manufactured for TNF-α, IL-4, IL-5, and IL-13 were used.
Preparation Example 3 (α,δ-NA-L-G) or α,δ N-acetyl-D-glutamine was orally administered to the asthma-induced mice of Experimental Method 1 at a concentration of 100, 200, 400 or 800 μg/kg/day 30 minutes before a secondary airway challenge, and levels of IL-4, IL-5, and IL-13 were measured through the method described above in Experimental Method 4 24 hours after the secondary challenge. The results are shown in A and B of FIG. 4.

[3] = tested on: CK2α protein; test: Western blot of CK2α protein in lung of asthma-induced mice
Protocol: as §1
as §2, with “membrane. The PVDF membrane was washed, and added to a blocking buffer in which 5% skim milk was included in a TBS-T buffer, and incubated at room temperature. Then, the PVDF membrane was incubated at room temperature with an antibody diluted 1:1,000 in a TBS-T buffer containing 3% BSA.” for “membrane.”
Specifically, the secondary challenge (ovalbumin injection) was performed according to the method described above in Experimental Method 1, and the lungs were extracted after an hour, and then measured according to the method described above in Experimental Method 7. […] Also, the level of TNF-α corresponding to an NK-κB-dependent cytokine was measured by ELISA according to the method described above in Experimental Method 4. […]
The secondary challenge (ovalbumin injection) was performed according to the method described above in Experimental Method 1, and the lungs were extracted after 1 or 2 hours, and then measured according to the method described above in Experimental Method 7. […]

For `CC(=O)NC(=O)CC[C@H](NC(C)=O)C(=O)O` [Preparation Example 3, 2,5-diacetamido-5-oxopentanoic acid], the “level of the MKP-1 protein” value ([1]; lung tissue, oral daily 200, 500 or 1,000 μg/kg/day, 10 and 30 minutes after secondary challenge, FIG. 7) was “more increased depending on the concentration”, the “level of the MKP-1 protein” value ([1]; with MKP-1 siRNA treatment, same conditions as [5-1], FIG. 8) was “did not increase” and the “levels of IL-4, IL-5, and IL-13” value ([2]; asthma-induced mice, oral 200 μg/kg/day 30 minutes before secondary challenge, measured 24 hours after, FIG. 4A) was “remarkably inhibited”. The “expression levels of the cytokines” value ([2]; experiment [5-6], together with siRNA specific to MKP-1, FIG. 13) was “increased”, the “expression levels of the cytokines (IL-4, IL-5, and IL-13)” value ([2]; experiment [5-6], without MKP-1 siRNA, FIG. 13) was “decreased” and the “effect for reducing the level of CK2α” value ([3]; 400 μg/kg/day with siRNA specific to MKP-1, FIG. 9) was “not observed”. The “level of the CK2α protein” value ([3]; oral daily 400 μg/kg/day, lungs extracted an hour after secondary challenge, FIG. 9A) was “decreased”.
